One compound from patent US11179412B2, “Methods of treating conditions involving elevated inflammatory response” (University of Pittsburgh—Of the Commonwealth System of …, priority 2017, dated 2021) can be followed below.

Assay [1] concerns receptor tyrosine kinase phosphorylation in iBMDMs. The assay is described as follows: Proteome Profiler phospho-RTK array, iBMDMs. The assay is classed as cell-based, mouse. As to conditions: 3′3′-cGAMP or c-di-AMP 10 μg/ml, 16 hours, LDK378 10 μM. The text has this:
The Proteome Profiler Mouse XL Cytokine Array Kit (#ARY028) and the Proteome Profiler Mouse Phospho-RTK Array Kit (#ARY014) are membrane-based sandwich immunoassays. Captured antibodies spotted in duplicate on nitrocellulose membranes bind to specific target proteins present in the sample (Step 1). Captured proteins are detected with biotinylated detection antibodies (Step 2) and then visualized using chemiluminescent detection reagents (Step 3). The signal produced is proportional to the amount of analyte bound. The intensities of bands were analyzed with Quick Spots Image Analysis Software (Western Vision Software, http://www.wvision.com/QuickSpots.html).

In assay [2] the test system is IFNβ mRNA in THP1 cells. The assay is described as follows: IFNβ mRNA Q-PCR, THP1 cells. The assay is classed as cell-based, human. The note with it: STING ligands 10 μg/ml, inhibitor 10 μM, 16 hours. As for the experimental part:
(§1) Total RNA was extracted using QIAGEN RNeasy Plus Kit according to the manufacturer's instructions. First-strand cDNA was synthesized from 1 μg of RNA using the iScript cDNA Synthesis kit (#1708890, Bio-Rad). Briefly, 20 μl reactions were prepared by combining 4 μl iScript Select reaction mix, 2 μl gene-specific enhancer solution, 1 μl reverse transcriptase, 1 μl gene-specific assay pool (20×, 2 μM), and 12 μl RNA diluted in RNase-free water. Quantitative real-time PCR was carried out using synthesized cDNA, primers, and SsoFast EvaGreen Supermix (#172-5204, Bio-Rad). The expression of target genes was calculated using the ddCt method relative to the expression of a house-keeping gene, β-actin. Data shown are the relative quantity (RQ), with RQ of the control cells set to one.

In assay [3] the test system is IFNβ mRNA in iBMDMs. The assay is described as follows: IFNβ mRNA Q-PCR, iBMDMs. The format is cell-based, mouse. The note with it: STING ligands 10 μg/ml, inhibitor 10 μM, 16 hours. Here is the method: as §1

With `Cc1cc(Nc2ncc(Cl)c(Nc3ccccc3S(=O)(=O)C(C)C)n2)c(OC(C)C)cc1C1CCNCC1` [LDK378, 5-chloro-N^2-(2-isopropoxy-5-methyl-4-(piperidin-4-yl)phenyl)-N^4-[2-(propane-2-sulfonyl)-phenyl]-pyrimidine-2,4-diamine], in assay [1], the “STING ligand-induced upregulated phosphorylation of various RTKs, including EGFR” value was “impaired”. Also, the “STING ligand-induced IFNβ mRNA expression” value in assay [2] and in assay [3] was “attenuation” each time.
